pIC50: −log10 of the molar value.
Experiments:
JMJD2C = JMJD2C (Homo sapiens (Human), UniProt Q9H3R0); assay: In vitro enzyme inhibition assay for JMJD2C activity (TR-FRET); format: biochemical
Experimental: This assay determines the ability of a test compound to inhibit JMJD2C demethylase activity. Baculovirus expressed JMJD2C (GenBank Accession #BC143571, AA 2-372) was purchased from BPS Bioscience (Cat#50105).
The ability of test compounds to inhibit the activity of JMJD2C was determined in 384-well plate format under the following reaction conditions: 0.3 nM JMJD2C, 300 nM H3K9me3-biotin labeled peptide (Anaspec cat #64360), 2 μM alpha-ketoglutaric acid in assay buffer of 50 mM HEPES, pH7.3, 0.005% Brij35, 0.5 mM TCEP, 0.2 mg/ml BSA, 50 μM sodium L-ascorbate, and 2 μM ammonium iron(II) sulfate. Reaction product was determined quantitatively by TR-FRET after the addition of detection reagent Phycolink Streptavidin-allophycocyanin (Prozyme) and Europium-anti-di-methylated histone H3 lysine 9 (H3K9me2) antibody (PerkinElmer) in the presence of 5 mM EDTA in LANCE detection buffer (PerkinElmer) at a final concentration of 50 nM and 1 nM, respectively.
(§1) The assay reaction was initiated by the following: 2 μl of the mixture of 900 nM H3K9me3-biotin labeled peptide and 6 μM alpha-ketoglutaric acid with 2 μl of 11-point serial diluted inhibitor in 3% DMSO were added to each well of the plate, followed by the addition of 2 μl of 0.9 nM JMJD2C to initiate the reaction. The reaction mixture was incubated at RT for 30 min, and terminated by the addition of 6 μl of 5 mM EDTA in LANCE detection buffer containing 100 nM Phycolink Streptavidin-allophycocyanin and 2 nM Europium-anti-H3K9me2 antibody. Plates were read by EnVisionMultilabel Reader in TR-FRET mode (excitation at 320 nm, emission at 615 nm and 665 nm) after 1 hr incubation at RT. A ratio was calculated (665/615) for each well and fitted to determine inhibition constant (IC50).

Jarid1B = Jarid1B (Homo sapiens (Human), UniProt Q9UGL1); assay: In vitro enzyme inhibition assay for Jarid1B activity (TR-FRET); format: biochemical
Experimental: The ability of test compounds to inhibit the activity of Jarid1B was determined in 384-well plate format under the following reaction conditions: 0.8 nM Jarid1B, 300 nM H3K4me3-biotin labeled peptide (Anaspec cat #64357), 2 μM alpha-ketoglutaric acid in assay buffer of 50 mM HEPES, pH7.3, 0.005% Brij35, 0.5 mM TCEP, 0.2 mg/ml BSA, 50 μM sodium L-ascorbate, and 2 μM ammonium iron(II) sulfate. Reaction product was determined quantitatively by TR-FRET after the addition of detection reagent Phycolink Streptavidin-allophycocyanin (Prozyme) and Europium-anti-H3K4me or -H3K4me2 antibody (PerkinElmer) in the presence of 5 mM EDTA in LANCE detection buffer (PerkinElmer) at a final concentration of 25 nM and 1 nM, respectively.
as §1, with “nM H3K4me3-biotin” for “nM H3K9me3-biotin”, “DMSO was” for “DMSO were”, “of 2.4” for “of 0.9”, “nM Jarid1B” for “nM JMJD2C”, “containing 50” for “containing 100”, “nM Europium-anti-H3K4me/H3K4me2” for “nM Europium-anti-H3K9me2”

[1] = test system: esophageal squamous cell carcinoma KYSE-150 cells; assay: Cellular IC50 in KYSE-150 cells; format: cell-based; details: Homo sapiens, one class given per A and B pair
Source text: Table 7 provides IC50 values of various compounds disclosed herein, tested in cellular human esophageal squamous cell carcinoma KYSE-150 cells: […]

Jurkat cells = assay: Jurkat (T-ALL) cell line proliferation assay (Cell-MTS Assay); format: cell-based; details: Homo sapiens, 168 hr incubation, cell gives A/B enantiomer values, read-out: Cellular IC50
Source text: The Jurkat (T-ALL) cell line proliferation assay (Cell-MTS Assay) is a colorimetric cellular assay to assess the ability of KDM small molecule inhibitors to effect the proliferation of the established human acute T cell leukemia cancer cell line Jurkat.
This Cell-MTS assay is a 7-day plate-based colorimetric assay which quantifies the amount of newly generated NADH in the presence and absence of test compound. These NADH levels are used as a proxy for the quantification of cancer cell proliferation.
The established cancer cell line Jurkat with a verified p53 mutation were purchased from American Type Culture Collection (ATCC) and routinely passaged according to ATCC published protocols. For routine assay these cells were seeded at a density of 10,000 cells per 96-well. 24 hr after plating, cells received an 11-point dilution of test compound with final concentration ranges from 10 μM to 0.15 nM. Cells were incubated in the presence of compound for 168 hr at 37° C., 5% CO2. At the end of this compound incubation period, 80 μl of media is removed and 20 μL of CellTiter 96® AQueous Non-Radioactive Cell Proliferation Assay solution (Promega) is added. The cells were incubated until the OD490 reached >0.6. IC50 values are calculated using the IDBS XLfit software package and include background subtracted OD490 values and normalization to DMSO controls. Cellular proliferation IC50 values are uploaded and archived using the Chem Biography Platform.

JMJD3 = JMJD3 (Homo sapiens, UniProt O15054); assay: In vitro enzyme inhibition assay for JMJD3 activity (TR-FRET); format: biochemical
Experimental: This assay determines the ability of a test compound to inhibit JMJD3 demethylase activity. Baculovirus expressed JMJD3 (GenBank Accession #NM-001080424, AA1043-end) was purchased from BPS Bioscience (Cat#50115).
The enzymatic assay of JMJD3 activity is based upon Time Resolved-Fluorescence Resonance Energy Transfer (TR-FRET) detection. The ability of test compounds to inhibit the activity of JMJD3 was determined in 384-well plate format under the following reaction conditions: 5 nM JMJD3, 250 nM H3K27me3-biotin labeled peptide (Anaspec cat #64367), 0.4 to 2 μM α-ketoglutaric acid in assay buffer of 50 mM HEPES, pH7.3, 0.005% Brij35, 0.5 mM TCEP, 0.2 mg/ml BSA, 50 μM sodium L-ascorbate, and 5 μM ammonium iron(II) sulfate. Reaction product was determined quantitatively by TR-FRET after the addition of detection reagent Phycolink Streptavidin-allophycocyanin (Prozyme) and Europium-anti-H3K27me2 antibody (PerkinElmer) in the presence of 5 mM EDTA in LANCE detection buffer (PerkinElmer) at a final concentration of 50 nM and 1 nM, respectively.
The assay reaction was initiated by the following: […] of the mixture of 750 nM H3K27me3-biotin labeled peptide and 1.2 to 6 μM alpha-ketoglutaric acid with 2 μL of 11-point serial diluted inhibitor in 3% DMSO were added to each well of plate, followed by the addition of 2 μl of 15 nM JMJD3 to initiate the reaction. The reaction mixture was incubated at RT for 30 min, and terminated by the addition of 6 μL of 5 mM EDTA in LANCE detection buffer containing 100 nM Phycolink Streptavidin-allophycocyanin and 2 nM Europium-anti-H3K27me2 antibody. Plates were read by EnVisionMultilabel Reader in TR-FRET mode (excitation at 320 nm, emission at 615 nm and 665 nm) after 1 hr incubation at RT. A ratio from the readout of 665/615 was calculated for each well and fitted to determine inhibition constant (IC50).

[2] = Table 4, cell gives A/B enantiomer values
[3] = Table 5, one class given per A and B pair

Chain of JMJD2C (Q9H3R0 2-372): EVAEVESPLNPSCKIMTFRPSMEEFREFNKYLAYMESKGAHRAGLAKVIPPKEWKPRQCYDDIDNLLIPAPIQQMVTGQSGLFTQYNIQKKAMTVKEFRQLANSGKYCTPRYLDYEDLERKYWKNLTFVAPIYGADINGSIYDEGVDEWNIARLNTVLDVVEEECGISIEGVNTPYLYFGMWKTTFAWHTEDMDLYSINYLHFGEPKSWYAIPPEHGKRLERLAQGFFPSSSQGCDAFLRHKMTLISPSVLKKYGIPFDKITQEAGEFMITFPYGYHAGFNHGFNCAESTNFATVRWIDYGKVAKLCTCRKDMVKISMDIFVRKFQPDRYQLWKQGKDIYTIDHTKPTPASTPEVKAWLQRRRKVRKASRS
Chain of Jarid1B (Q9UGL1 whole entry, species assumed): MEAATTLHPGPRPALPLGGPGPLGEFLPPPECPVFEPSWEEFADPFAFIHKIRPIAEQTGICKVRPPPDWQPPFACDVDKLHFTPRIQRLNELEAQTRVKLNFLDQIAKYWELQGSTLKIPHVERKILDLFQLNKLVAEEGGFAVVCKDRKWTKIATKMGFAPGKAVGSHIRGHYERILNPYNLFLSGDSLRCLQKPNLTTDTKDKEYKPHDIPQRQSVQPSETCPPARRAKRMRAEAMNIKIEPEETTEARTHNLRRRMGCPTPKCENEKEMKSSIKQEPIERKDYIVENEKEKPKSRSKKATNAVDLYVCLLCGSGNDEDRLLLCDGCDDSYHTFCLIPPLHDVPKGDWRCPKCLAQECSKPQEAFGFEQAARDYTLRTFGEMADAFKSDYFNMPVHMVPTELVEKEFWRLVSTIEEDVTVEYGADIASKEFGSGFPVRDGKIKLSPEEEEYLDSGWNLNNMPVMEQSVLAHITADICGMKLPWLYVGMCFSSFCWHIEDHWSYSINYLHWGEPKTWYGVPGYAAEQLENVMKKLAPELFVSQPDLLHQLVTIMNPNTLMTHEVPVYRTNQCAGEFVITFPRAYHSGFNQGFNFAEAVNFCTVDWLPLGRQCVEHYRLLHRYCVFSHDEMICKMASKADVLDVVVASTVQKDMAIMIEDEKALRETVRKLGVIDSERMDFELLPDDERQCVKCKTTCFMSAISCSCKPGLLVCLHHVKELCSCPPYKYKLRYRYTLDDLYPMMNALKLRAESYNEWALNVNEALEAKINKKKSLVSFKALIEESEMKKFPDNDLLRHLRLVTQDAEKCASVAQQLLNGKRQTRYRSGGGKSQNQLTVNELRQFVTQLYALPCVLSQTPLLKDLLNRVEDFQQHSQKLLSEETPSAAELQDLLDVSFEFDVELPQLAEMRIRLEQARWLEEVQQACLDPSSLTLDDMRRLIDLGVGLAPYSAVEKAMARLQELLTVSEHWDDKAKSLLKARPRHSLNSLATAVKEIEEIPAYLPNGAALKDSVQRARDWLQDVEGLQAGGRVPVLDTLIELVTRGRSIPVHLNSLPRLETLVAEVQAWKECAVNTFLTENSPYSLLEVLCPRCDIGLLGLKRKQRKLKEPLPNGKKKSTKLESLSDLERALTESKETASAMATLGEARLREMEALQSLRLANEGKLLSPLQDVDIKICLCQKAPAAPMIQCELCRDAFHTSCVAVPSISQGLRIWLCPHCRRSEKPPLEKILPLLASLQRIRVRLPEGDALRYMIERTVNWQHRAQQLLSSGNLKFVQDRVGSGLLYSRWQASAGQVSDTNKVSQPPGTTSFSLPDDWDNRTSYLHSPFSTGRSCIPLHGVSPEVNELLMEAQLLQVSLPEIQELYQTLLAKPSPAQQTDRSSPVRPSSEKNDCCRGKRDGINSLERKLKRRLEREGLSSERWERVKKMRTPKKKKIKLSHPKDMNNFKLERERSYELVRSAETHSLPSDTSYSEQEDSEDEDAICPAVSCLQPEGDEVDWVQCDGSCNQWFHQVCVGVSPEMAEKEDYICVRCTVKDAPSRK

Row | pIC50 (JMJD2C; [2]) | pIC50 (JMJD2C; [3]) | pIC50 (Jarid1B; [2]) | pIC50 (Jarid1B; [3]) | pIC50 [1] | pIC50 (Jurkat cells) | pIC50 (JMJD3; [2]) | pIC50 (JMJD3; [3]) | Compound
1 | 5.00 to 6.00 | 5.00 to 6.00 | ≥ 7.00 | ≥ 7.00 | < 5.00 | 6.00 to 7.00 | 5.00 to 6.00 | 5.00 to 6.00 | Cc1cc(OCC(F)(F)F)ccc1-c1ccc2c(c1)CCN[C@H]2CNc1cnccc1C(=O)O [Example 2B, 3-[({(1R)-6-[2-methyl-4-(2,2,2-trifluoroethoxy)phenyl]-1,2,3,4-tetrahydroisoquinolyl)methyl)amino]pyridine-4-carboxylic acid]
2 | 6.00 to 7.00 | 6.00 to 7.00 | ≥ 7.00 | ≥ 7.00 | 5.00 to 6.00 | ≥ 7.00 | – | – | Cc1ccc(N(C)c2ccc3c(c2)CCN[C@@H]3CNc2cnccc2C(=O)O)cc1 [Example 1A, 3-[({(1S)-6-[methyl(4-methylphenyl)amino]-1,2,3,4-tetrahydroisoquinolyl}methyl)amino]pyridine-4-carboxylic acid]
3 | – | 5.00 to 6.00 | – | ≥ 7.00 | 6.00 to 7.00 | – | – | 5.00 to 6.00 | Cc1ccccc1-c1ccc2c(c1)CCN[C@H]2CNc1cnccc1C(=O)O [Example 8A, (R)-3-(((6-(o-tolyl)-1,2,3,4-tetrahydroisoquinolin-1-yl)methyl)amino)isonicotinic Acid]
4 | – | 6.00 to 7.00 | – | ≥ 7.00 | ≥ 7.00 | – | – | 5.00 to 6.00 | CCc1ccc(N(C)c2ccc3c(c2)CN(C)[C@H]3CNc2cnccc2C(=O)O)cc1 [Example 19A, (R)-3-(((5-((4-ethylphenyl)(methyl)amino)-2-methylisoindolin-1-yl)methyl)amino)isonicotinic acid]
5 | 5.00 to 6.00 | 6.00 to 7.00 | ≥ 7.00 | ≥ 7.00 | 6.00 to 7.00 | – | 5.00 to 6.00 | < 5.00 | Cc1cc(OCC2CC2)ccc1-c1ccc2c(c1)CCN[C@@H]2CNc1cnccc1C(=O)O [Example 4A, 3-[({(1S)-6-[4-(cyclopropylmethoxy)-2-methylphenyl]-1,2,3,4-tetrahydro-isoquinolyl}methyl)amino]pyridine-4-carboxylic acid]
6 | 5.00 to 6.00 | 5.00 to 6.00 | ≥ 7.00 | ≥ 7.00 | < 5.00 | 6.00 to 7.00 | 5.00 to 6.00 | 5.00 to 6.00 | Cc1cc(OCC(F)(F)F)ccc1-c1ccc2c(c1)CCN[C@@H]2CNc1cnccc1C(=O)O [Example 2A, 3-[({(1S)-6-[2-methyl-4-(2,2,2-trifluoro-ethoxy)phenyl]-1,2,3,4-tetrahydro-isoquinolyl}methyl)amino]pyridine-4-carboxylic acid]
7 | – | 5.00 to 6.00 | – | ≥ 7.00 | 6.00 to 7.00 | – | – | 5.00 to 6.00 | CCc1ccccc1-c1ccc2c(c1)CCN[C@@H]2CNc1cnccc1C(=O)O [Example 9B, (S)-3-(((6-(2-ethylphenyl)-1,2,3,4-tetrahydroisoquinolin-1-yl)methyl)amino)isonicotinic Acid]
8 | – | 5.00 to 6.00 | – | ≥ 7.00 | ≥ 7.00 | – | – | 5.00 to 6.00 | CCCc1ccc(N(C)c2ccc3c(c2)CCN(C)[C@H]3CNc2cnccc2C(=O)O)cc1 [Example 14A, (R)-3-(((2-methyl-6-(methyl (4-propylphenyl)amino)-1,2,3,4-tetrahydroisoquinolin-1-yl)methyl)amino)isonicotinic acid]
9 | – | 5.00 to 6.00 | – | ≥ 7.00 | 6.00 to 7.00 | – | – | 5.00 to 6.00 | Cc1ccccc1-c1ccc2c(c1)CCN[C@@H]2CNc1cnccc1C(=O)O [Example 8B, (S)-3-(((6-(o-tolyl)-1,2,3,4-tetrahydroisoquinolin-1-yl)methyl)amino) isonicotinic Acid]
10 | 5.00 to 6.00 | 5.00 to 6.00 | ≥ 7.00 | ≥ 7.00 | 6.00 to 7.00 | – | 6.00 to 7.00 | 5.00 to 6.00 | Cc1cc(OCC(F)(F)F)ccc1-c1ccc2c(c1)CN[C@@H]2CNc1cnccc1C(=O)O [Example 7A, 3-[({(1S)-5-[2-methyl-4-(2,2,2-trifluoro-ethoxy)phenyl]isoindolinyl}methyl)amino]pyridine-4-carboxylic acid]
